In ChEMBL document CHEMBL1777794, “Optimization of the physicochemical and pharmacokinetic attributes in a 6-azauracil series of P2X7 receptor antagonists leading to the discovery of the clinical candidate CE-224,535” (Bioorg Med Chem Lett, 2011):
Activity calls are given as the source filed them. The calls are words filed in the database; no cut-off is given here.

Key:
P2X purinoceptor 7 [1] = molecular target: T1, P2X purinoceptor 7 (Homo sapiens, UniProt Q99572); test: Antagonist activity at P2X7 receptor in human LPS-stimulated monocytes assessed as inhibition of ATP-induced IL1-beta release by ELISA; format: functional, cell-based
T1 sequence (Q99572 whole entry): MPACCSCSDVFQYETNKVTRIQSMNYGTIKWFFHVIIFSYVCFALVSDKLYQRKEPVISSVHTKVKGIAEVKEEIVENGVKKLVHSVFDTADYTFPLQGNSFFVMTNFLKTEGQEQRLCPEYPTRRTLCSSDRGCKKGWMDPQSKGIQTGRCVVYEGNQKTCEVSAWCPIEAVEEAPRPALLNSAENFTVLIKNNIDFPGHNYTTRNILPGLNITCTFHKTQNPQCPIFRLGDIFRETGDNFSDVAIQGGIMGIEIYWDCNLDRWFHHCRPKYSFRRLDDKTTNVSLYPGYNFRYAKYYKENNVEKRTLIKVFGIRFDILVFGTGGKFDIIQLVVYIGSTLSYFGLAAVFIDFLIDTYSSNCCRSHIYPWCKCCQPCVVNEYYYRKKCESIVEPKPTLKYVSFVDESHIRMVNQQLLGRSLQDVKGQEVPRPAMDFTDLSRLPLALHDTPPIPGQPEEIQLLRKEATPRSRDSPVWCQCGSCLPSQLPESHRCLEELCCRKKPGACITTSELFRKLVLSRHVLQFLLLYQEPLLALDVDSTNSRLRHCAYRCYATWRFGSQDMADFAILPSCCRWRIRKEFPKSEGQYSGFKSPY

P2X purinoceptor 7 [2] = molecular target: T1, P2X purinoceptor 7; test: Antagonist activity at P2X7 receptor expressed in HEK293 cells assessed as inhibition of ATP-induced YOPRO-1 uptake; format: functional, cell-based
[3] = molecular target: T2, P2X purinoceptor 7 (Homo sapiens) (UniProt Q99572); test: Antagonist activity at P2X7 receptor in human LPS-stimulated monocytes assessed as inhibition of ATP-induced IL1-beta release at 5 uM by ELISA; format: functional, cell-based
T2 sequence (whole entry): T1 sequence (Q99572 whole entry)

[4] = Fraction unbound in human plasma; format: ADME, cell-free
in vivo [5] = conditions: dog, plasma
P2X purinoceptor 7 [6] = molecular target: T1, P2X purinoceptor 7; test: (§1) Antagonist activity at P2X7 receptor in human LPS-stimulated monocytes assessed as inhibition of ATP-induced IL1-beta release by ELISA in presence of human blood; format: functional, cell-based
[7] = molecular target: T2, P2X purinoceptor 7 (Homo sapiens); test: as §1; format: functional, cell-based
[8] = Plasma clearance in monkey; conditions: rhesus monkey
[9] = Half life in monkey; format: ADME, organism-based, Macaca mulatta; conditions: rhesus monkey, in vivo
in vivo [10] = conditions: rat, plasma
[11] = Volume of distribution at steady state in rat; format: ADME, organism-based; conditions: in vivo, read-out: Vdss
[12] = Cmax in dog; format: ADME, organism-based, Canis lupus familiaris; conditions: in vivo
[13] = Oral bioavailability in rat at 5 mg/kg; format: ADME, organism-based; conditions: in vivo
[14] = Half life in rat; format: ADME, organism-based; conditions: in vivo
[15] = Cmax in monkey; format: ADME, organism-based, Macaca mulatta; conditions: rhesus monkey, in vivo
[16] = Oral bioavailability in dog; format: ADME, organism-based, Canis lupus familiaris; conditions: in vivo
[17] = Volume of distribution at steady state in monkey; format: ADME, organism-based, Macaca mulatta; conditions: rhesus monkey, in vivo; read-out: Vdss
[18] = Cmax in rat at 5 mg/kg, po; format: ADME, organism-based; parameters: dose 5 mg/kg, route oral; conditions: in vivo
[19] = Half life in dog; format: ADME, organism-based, Canis lupus familiaris; conditions: in vivo
[20] = Oral bioavailability in monkey; format: ADME, organism-based, Macaca mulatta; conditions: rhesus monkey, in vivo
[21] = Volume of distribution at steady state in dog; format: ADME, organism-based, Canis lupus familiaris; conditions: in vivo, read-out: Vdss
Cytochrome P450 3A4 = Cytochrome P450 3A4 (Homo sapiens, UniProt P08684); test: Inhibition of human CYP3A4; format: ADME
Cytochrome P450 2C19 = Cytochrome P450 2C19 (Homo sapiens, UniProt P33261); test: Inhibition of human CYP2C19; format: ADME
Cytochrome P450 2C9 = Cytochrome P450 2C9 (Homo sapiens, UniProt P11712); test: Inhibition of human CYP2C9; format: ADME
Salmonella typhimurium = test: Mutagenic activity in Salmonella Typhimurium by Ames assay; format: toxicity, organism-based; conditions: salmonella enterica subsp. enterica serovar typhimurium
Rattus norvegicus = test: Toxicity in rat at 500 mg/kg, po qd for 4 days; format: organism-based; parameters: dose 500 mg/kg, route oral; conditions: in vivo, 96 h
[22] = molecular target: T3, P2X purinoceptor 7 (Mus musculus) (UniProt Q9Z1M0); test: Antagonist activity at P2X7 receptor in mouse LPS-stimulated peritoneal macrophages assessed as inhibition of ATP-induced IL1-beta release at 10 uM by ELISA; format: functional
T3 sequence (whole entry): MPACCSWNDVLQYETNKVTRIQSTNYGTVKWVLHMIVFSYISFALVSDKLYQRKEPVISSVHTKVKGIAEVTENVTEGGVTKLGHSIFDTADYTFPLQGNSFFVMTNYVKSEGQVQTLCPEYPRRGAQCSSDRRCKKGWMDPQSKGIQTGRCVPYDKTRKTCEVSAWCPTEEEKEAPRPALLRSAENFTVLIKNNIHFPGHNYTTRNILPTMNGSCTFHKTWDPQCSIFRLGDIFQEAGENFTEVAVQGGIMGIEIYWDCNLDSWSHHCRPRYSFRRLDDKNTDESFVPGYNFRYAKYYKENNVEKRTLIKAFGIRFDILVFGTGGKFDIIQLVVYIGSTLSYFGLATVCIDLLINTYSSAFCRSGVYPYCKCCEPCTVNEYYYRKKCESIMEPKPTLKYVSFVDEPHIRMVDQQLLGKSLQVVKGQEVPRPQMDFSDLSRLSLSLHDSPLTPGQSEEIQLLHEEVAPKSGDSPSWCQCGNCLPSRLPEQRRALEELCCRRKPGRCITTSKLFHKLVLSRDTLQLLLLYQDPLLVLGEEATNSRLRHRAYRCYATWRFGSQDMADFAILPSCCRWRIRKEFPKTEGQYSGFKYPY

Cytochrome P450 1A2 = molecular target: T4, Cytochrome P450 1A2 (Homo sapiens, UniProt P05177); test: Inhibition of human CYP1A2; format: ADME
T4 sequence (P05177 whole entry): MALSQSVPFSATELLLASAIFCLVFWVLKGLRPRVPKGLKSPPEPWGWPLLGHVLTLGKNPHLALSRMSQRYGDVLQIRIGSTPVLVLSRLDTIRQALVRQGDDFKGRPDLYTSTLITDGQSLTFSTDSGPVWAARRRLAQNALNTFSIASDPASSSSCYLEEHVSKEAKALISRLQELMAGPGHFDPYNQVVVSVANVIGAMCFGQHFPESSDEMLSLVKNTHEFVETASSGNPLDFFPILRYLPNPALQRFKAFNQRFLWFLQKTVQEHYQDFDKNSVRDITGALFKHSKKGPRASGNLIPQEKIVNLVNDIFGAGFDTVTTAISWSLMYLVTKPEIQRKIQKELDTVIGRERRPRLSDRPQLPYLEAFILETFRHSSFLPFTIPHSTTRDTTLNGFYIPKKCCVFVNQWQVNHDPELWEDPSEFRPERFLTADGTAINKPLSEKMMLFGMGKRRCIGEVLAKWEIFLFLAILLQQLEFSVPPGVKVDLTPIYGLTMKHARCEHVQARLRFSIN

[23] = molecular target: Voltage-gated inwardly rectifying potassium channel KCNH2 (Homo sapiens, UniProt Q12809); test: Inhibition of human ERG at 1 uM
Cytochrome P450 2D6 = Cytochrome P450 2D6 (Homo sapiens, UniProt P10635); test: Inhibition of human CYP2D6; format: ADME
[24] = Trough plasma concentration in rheumatoid arthritis patient at 500 mg BID for 12 weeks; format: ADME; conditions: human, read-out: Cmin

Cytochrome P450 3A4, sequence (P08684 whole entry): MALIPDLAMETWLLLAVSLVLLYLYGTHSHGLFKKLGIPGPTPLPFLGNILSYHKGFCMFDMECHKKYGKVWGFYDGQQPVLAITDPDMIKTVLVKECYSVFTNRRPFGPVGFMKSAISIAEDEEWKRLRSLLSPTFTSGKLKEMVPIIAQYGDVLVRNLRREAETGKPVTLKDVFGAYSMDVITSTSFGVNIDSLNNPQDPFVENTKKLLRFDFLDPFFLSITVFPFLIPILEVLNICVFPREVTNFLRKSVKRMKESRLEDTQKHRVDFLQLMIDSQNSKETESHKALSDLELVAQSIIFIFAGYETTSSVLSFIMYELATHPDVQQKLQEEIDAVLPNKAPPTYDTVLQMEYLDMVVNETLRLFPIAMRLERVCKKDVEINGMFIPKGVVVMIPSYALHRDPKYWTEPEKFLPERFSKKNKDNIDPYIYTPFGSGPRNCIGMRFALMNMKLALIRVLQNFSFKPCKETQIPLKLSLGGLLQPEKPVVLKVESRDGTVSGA
Voltage-gated inwardly rectifying potassium channel KCNH2, sequence (Q12809 whole entry): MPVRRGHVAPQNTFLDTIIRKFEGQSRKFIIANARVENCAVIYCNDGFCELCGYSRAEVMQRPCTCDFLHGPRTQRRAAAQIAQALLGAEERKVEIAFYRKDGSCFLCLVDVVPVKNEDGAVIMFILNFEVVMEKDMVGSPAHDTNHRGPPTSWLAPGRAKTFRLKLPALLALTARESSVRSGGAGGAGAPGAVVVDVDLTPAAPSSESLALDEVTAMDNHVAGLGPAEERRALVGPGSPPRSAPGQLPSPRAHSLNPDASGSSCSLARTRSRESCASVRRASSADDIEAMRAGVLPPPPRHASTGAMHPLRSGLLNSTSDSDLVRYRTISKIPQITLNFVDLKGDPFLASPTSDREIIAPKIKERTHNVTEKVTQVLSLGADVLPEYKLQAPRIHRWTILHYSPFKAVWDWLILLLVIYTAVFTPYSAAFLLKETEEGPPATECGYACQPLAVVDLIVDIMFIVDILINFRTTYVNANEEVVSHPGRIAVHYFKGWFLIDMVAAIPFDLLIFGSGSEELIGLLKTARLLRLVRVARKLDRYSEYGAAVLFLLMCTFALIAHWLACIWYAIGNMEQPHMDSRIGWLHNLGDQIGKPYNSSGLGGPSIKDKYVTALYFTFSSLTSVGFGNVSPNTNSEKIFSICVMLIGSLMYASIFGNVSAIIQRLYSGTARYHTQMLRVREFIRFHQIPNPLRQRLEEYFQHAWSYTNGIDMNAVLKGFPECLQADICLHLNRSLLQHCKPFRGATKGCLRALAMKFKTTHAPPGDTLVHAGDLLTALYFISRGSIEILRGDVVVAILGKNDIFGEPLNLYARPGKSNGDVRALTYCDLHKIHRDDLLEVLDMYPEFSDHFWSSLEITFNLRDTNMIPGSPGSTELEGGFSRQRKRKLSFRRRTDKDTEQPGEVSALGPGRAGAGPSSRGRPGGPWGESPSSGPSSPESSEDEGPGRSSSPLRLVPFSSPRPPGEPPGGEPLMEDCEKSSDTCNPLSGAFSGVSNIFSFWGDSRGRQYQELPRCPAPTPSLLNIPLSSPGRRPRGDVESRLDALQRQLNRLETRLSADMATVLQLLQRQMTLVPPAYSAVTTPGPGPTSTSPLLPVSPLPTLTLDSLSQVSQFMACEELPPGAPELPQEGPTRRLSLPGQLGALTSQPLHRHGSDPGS
Cytochrome P450 2C9, sequence (P11712 whole entry): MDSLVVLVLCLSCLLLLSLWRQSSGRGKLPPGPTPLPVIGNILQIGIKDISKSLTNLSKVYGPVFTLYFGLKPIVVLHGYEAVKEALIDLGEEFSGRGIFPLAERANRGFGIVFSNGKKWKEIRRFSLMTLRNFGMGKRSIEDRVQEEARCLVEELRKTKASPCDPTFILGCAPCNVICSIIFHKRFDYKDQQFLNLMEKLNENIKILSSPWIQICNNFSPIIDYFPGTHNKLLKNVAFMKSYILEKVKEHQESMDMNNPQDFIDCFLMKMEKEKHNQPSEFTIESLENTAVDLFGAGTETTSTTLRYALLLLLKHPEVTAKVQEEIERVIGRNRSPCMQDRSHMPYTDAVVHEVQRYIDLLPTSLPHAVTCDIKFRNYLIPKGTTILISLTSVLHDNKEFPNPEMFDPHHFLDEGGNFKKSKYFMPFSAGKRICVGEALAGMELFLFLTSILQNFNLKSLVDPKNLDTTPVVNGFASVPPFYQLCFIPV
Cytochrome P450 2C19, sequence (P33261 whole entry): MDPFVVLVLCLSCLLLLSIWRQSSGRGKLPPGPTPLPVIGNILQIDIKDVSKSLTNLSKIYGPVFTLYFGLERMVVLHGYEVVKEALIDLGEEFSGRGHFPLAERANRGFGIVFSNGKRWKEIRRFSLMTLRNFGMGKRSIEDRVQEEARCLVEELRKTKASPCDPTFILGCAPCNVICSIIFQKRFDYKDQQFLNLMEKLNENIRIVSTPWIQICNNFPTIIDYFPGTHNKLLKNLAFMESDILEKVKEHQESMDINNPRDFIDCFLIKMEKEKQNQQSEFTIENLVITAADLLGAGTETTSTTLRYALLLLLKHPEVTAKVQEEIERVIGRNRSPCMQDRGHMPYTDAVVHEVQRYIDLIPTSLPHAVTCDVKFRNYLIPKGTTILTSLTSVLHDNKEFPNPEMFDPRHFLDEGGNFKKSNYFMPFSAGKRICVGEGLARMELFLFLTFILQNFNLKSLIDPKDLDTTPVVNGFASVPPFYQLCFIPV
Cytochrome P450 2D6, sequence (P10635 whole entry): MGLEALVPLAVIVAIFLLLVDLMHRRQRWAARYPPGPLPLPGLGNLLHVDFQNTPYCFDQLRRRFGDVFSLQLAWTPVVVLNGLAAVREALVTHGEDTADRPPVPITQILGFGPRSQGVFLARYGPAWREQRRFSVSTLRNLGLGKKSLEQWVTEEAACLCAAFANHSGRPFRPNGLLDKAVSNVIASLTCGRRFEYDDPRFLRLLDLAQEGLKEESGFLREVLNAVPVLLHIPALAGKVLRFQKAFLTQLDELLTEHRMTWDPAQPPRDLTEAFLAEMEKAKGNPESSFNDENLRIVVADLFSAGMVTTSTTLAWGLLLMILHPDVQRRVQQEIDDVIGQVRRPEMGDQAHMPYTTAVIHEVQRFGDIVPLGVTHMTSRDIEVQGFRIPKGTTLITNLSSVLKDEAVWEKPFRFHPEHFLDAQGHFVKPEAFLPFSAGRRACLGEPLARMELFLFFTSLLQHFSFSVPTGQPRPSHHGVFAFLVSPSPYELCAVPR

Question: With `CCCCCNC(=O)c1cc(-n2ncc(=O)[nH]c2=O)ccc1Cl` as the compound, how does the IC50 (P2X purinoceptor 7 [1]) read?
Answer: 2800 nM

Question: Which IC50 (P2X purinoceptor 7 [1]) does the source give for `CCCOCCNC(=O)c1cc(-n2ncc(=O)[nH]c2=O)ccc1Cl` here?
Answer: > 5000 nM

Question: For `CCCCC(CC)CNC(=O)c1cc(-n2ncc(=O)[nH]c2=O)ccc1Cl` (stereo not given), which IC50 (P2X purinoceptor 7 [2]) is on record?
Answer: 1100 nM

Question: Which inhibition [3] does the source give for `CCCCC(CC)COC(=O)c1cc(-n2ncc(=O)[nH]c2=O)ccc1Cl` (stereo not given) here?
Answer: 19%

Question: Which IC50 (P2X purinoceptor 7 [1]) does the source give for `O=C(NCC1CCOCC1)c1cc(-n2ncc(=O)[nH]c2=O)ccc1Cl` here?
Answer: > 5000 nM

Question: For `O=C(NCC1CCCCC1)c1cc(-n2ncc(=O)[nH]c2=O)ccc1Cl`, which IC50 (P2X purinoceptor 7 [1]) is on record?
Answer: 1300 nM

Question: For `O=C(NCCc1ccccn1)c1cc(-n2ncc(=O)[nH]c2=O)ccc1Cl`, which inhibition [3] is on record?
Answer: 15%

Question: Which IC50 (P2X purinoceptor 7 [1]) does the source give for `CCC(CC)CNC(=O)c1cc(-n2ncc(=O)[nH]c2=O)ccc1Cl` here?
Answer: 1100 nM

Question: For `CCCCC(CC)CNC(=O)c1cccc(-n2ncc(=O)[nH]c2=O)c1` (stereo not given), which inhibition [3] is on record?
Answer: 0%

Question: With `O=C(NCCc1ccncc1)c1cc(-n2ncc(=O)[nH]c2=O)ccc1Cl` as the compound, how does the inhibition [3] read?
Answer: 22%

Question: What does the source list for `O=C(NCC1(O)CCCCCC1)c1cc(-n2ncc(=O)[nH]c2=O)ccc1Cl`?
Answer: fraction unbound [4]: 0.18; clearance (in vivo [5]): 3.8 mL/min/kg; IC50 (P2X purinoceptor 7 [6]): 447 nM; IC90 [7]: 1000 nM; clearance [8]: 21 mL/min/kg; IC50 (P2X purinoceptor 7 [2]): 15 nM; half-life [9]: 3.4 h; IC50 (P2X purinoceptor 7 [1]): 83 nM; clearance (in vivo [10]): 20 mL/min/kg; Vd [11]: 8.5 L/kg; Cmax [12]: 7400 ng/mL; bioavailability [13]: 75%; half-life [14]: 3.2 h; Cmax [15]: 600 ng/mL; bioavailability [16]: 84%; Vd [17]: 1.5 L/kg; Cmax [18]: 1300 ng/mL; half-life [19]: 3.8 h; bioavailability [20]: 72%; Vd [21]: 0.6 L/kg

Question: Which inhibition [3] does the source give for `CCCCC(CC)CN(C)C(=O)c1cc(-n2ncc(=O)[nH]c2=O)ccc1Cl` (stereo not given) here?
Answer: 0%

Question: What does the source list for `COC[C@H](O)Cn1c(=O)cnn(-c2ccc(Cl)c(C(=O)NCC3(O)CCCCCC3)c2)c1=O` [CE-224535]?
Answer: IC50 (Cytochrome P450 3A4): > 30000 nM; fraction unbound [4]: 0.27; IC50 (Cytochrome P450 2C19): > 30000 nM; IC50 (P2X purinoceptor 7 [6]): 0.8 nM; IC90 [7]: 4.7 nM; IC50 (Cytochrome P450 2C9): > 30000 nM; Activity (Salmonella typhimurium): Non-toxic; IC50 (P2X purinoceptor 7 [2]): 4 nM; half-life [9]: 0.77 h; Activity (Rattus norvegicus): Non-toxic; IC50 (P2X purinoceptor 7 [1]): 1.4 nM; Vd [11]: 7.6 L/kg; inhibition [22]: Active; Cmax [12]: 3500 ng/mL; bioavailability [13]: 2.6%; half-life [14]: 2.4 h; Cmax [15]: 550 ng/mL; IC50 (Cytochrome P450 1A2): > 30000 nM; bioavailability [16]: 59%; Vd [17]: 0.68 L/kg; Cmax [18]: 210 ng/mL; half-life [19]: 0.46 h; bioavailability [20]: 22%; inhibition (INH) [23]: Not Active; IC50 (Cytochrome P450 2D6): > 30000 nM; Vd [21]: 0.61 L/kg; concentration at 2016 h [24]: 519 nM

Question: For `CCn1c(=O)cnn(-c2ccc(Cl)c(C(=O)NCC3(O)CCCCCC3)c2)c1=O`, which IC50 (P2X purinoceptor 7 [6]) is on record?
Answer: 185 nM

Question: What about the IC50 (P2X purinoceptor 7 [1]) of the same compound?
Answer: 86 nM
